Data published in PubChem BioAssay (NCI).
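Interpolation was linear, between the two tested concentrations surrounding the appropriate level; five concentrations were tested over 48 hours in 96-well plates. At the GI50, growth is halved. Definition used: TGI = concentration required for complete inhibition of growth.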

Tests used:
Assay in all cases: DTP human tumour cell line panel, 48 h
786-0 renal = tested on: 786-0 renal
A498 renal = tested on: A498 renal
A549 NSCLC = tested on: A549 NSCLC
ACHN renal = tested on: ACHN renal
BT-549 breast = tested on: BT-549 breast
CAKI-1 renal = tested on: CAKI-1 renal
CCRF-CEM leukemia = tested on: CCRF-CEM leukemia
COLO 205 colon = tested on: COLO 205 colon
DU-145 prostate = tested on: DU-145 prostate
EKVX NSCLC = tested on: EKVX NSCLC
HCC-2998 colon = tested on: HCC-2998 colon
HCT-116 colon = tested on: HCT-116 colon
HCT-15 colon = tested on: HCT-15 colon
HL-60(TB) leukemia = tested on: HL-60(TB) leukemia
HOP-62 NSCLC = tested on: HOP-62 NSCLC
HOP-92 NSCLC = tested on: HOP-92 NSCLC
HS 578T breast = tested on: HS 578T breast
HT29 colon = tested on: HT29 colon
IGROV1 ovarian = tested on: IGROV1 ovarian
K-562 leukemia = tested on: K-562 leukemia
KM12 colon = tested on: KM12 colon
LOX IMVI melanoma = tested on: LOX IMVI melanoma
M14 melanoma = tested on: M14 melanoma
MALME-3M melanoma = tested on: MALME-3M melanoma
MCF7 breast = tested on: MCF7 breast
MDA-MB-231 breast = tested on: MDA-MB-231 breast
MDA-MB-435 = tested on: MDA-MB-435
MOLT-4 leukemia = tested on: MOLT-4 leukemia
NCI-H226 lung = tested on: NCI-H226 lung
NCI-H23 lung = tested on: NCI-H23 lung
NCI-H460 lung = tested on: NCI-H460 lung
NCI-H522 lung = tested on: NCI-H522 lung
NCI/ADR-RES ovarian = tested on: NCI/ADR-RES ovarian
OVCAR-3 ovarian = tested on: OVCAR-3 ovarian
OVCAR-4 ovarian = tested on: OVCAR-4 ovarian
OVCAR-5 ovarian = tested on: OVCAR-5 ovarian
OVCAR-8 ovarian = tested on: OVCAR-8 ovarian
PC-3 prostate = tested on: PC-3 prostate
RPMI-8226 leukemia = tested on: RPMI-8226 leukemia
RXF 393 renal = tested on: RXF 393 renal
SF-268 CNS = tested on: SF-268 CNS
SF-295 CNS = tested on: SF-295 CNS
SF-539 CNS = tested on: SF-539 CNS
SK-MEL-2 melanoma = tested on: SK-MEL-2 melanoma
SK-MEL-28 melanoma = tested on: SK-MEL-28 melanoma
SK-MEL-5 melanoma = tested on: SK-MEL-5 melanoma
SK-OV-3 ovarian = tested on: SK-OV-3 ovarian
SN12C renal = tested on: SN12C renal
SNB-19 CNS = tested on: SNB-19 CNS
SNB-75 CNS = tested on: SNB-75 CNS
SR leukemia = tested on: SR leukemia
SW-620 colon = tested on: SW-620 colon
T-47D breast = tested on: T-47D breast
TK-10 renal = tested on: TK-10 renal
U251 CNS = tested on: U251 CNS
UACC-257 melanoma = tested on: UACC-257 melanoma
UACC-62 melanoma = tested on: UACC-62 melanoma
UO-31 renal = tested on: UO-31 renal

## COc1cc2nc(N3CCCC3)nc(NCc3ccccc3)c2cc1OC
786-0 renal
  GI50: 1.65 µM
  TGI: 3.07 µM
A498 renal
  GI50: 2.16 µM
  TGI: 8.56 µM
A549 NSCLC
  GI50: 4.1 µM
  TGI: 16.3 µM
ACHN renal
  GI50: 1.89 µM
  TGI: 3.89 µM
BT-549 breast
  GI50: 3.52 µM
  TGI: 13.4 µM
CAKI-1 renal
  GI50: 1.57 µM
  TGI: 3.14 µM
CCRF-CEM leukemia
  GI50: 2.55 µM
  TGI: 8.07 µM
COLO 205 colon
  GI50: 1.45 µM
  TGI: 3.14 µM
DU-145 prostate
  GI50: 4.62 µM
  TGI: 16.5 µM
EKVX NSCLC
  GI50: 6.04 µM
  TGI: 19.2 µM
HCC-2998 colon
  GI50: 2.13 µM
  TGI: 4.25 µM
HCT-116 colon
  GI50: 1.82 µM
  TGI: 4.12 µM
HCT-15 colon
  GI50: 1.79 µM
  TGI: 4.22 µM
HL-60(TB) leukemia
  GI50: 2.07 µM
  TGI: 4.33 µM
HOP-62 NSCLC
  GI50: 12.3 µM
  TGI: 26.9 µM
HOP-92 NSCLC
  GI50: 2.36 µM
  TGI: 14 µM
HS 578T breast
  GI50: 1.99 µM
  TGI: 4.5 µM
HT29 colon
  GI50: 2.29 µM
  TGI: 7.29 µM
IGROV1 ovarian
  GI50: 3.66 µM
  TGI: 16.2 µM
K-562 leukemia
  GI50: 2.09 µM
  TGI: 6.02 µM
KM12 colon
  GI50: 4.52 µM
  TGI: 17 µM
LOX IMVI melanoma
  GI50: 1.71 µM
  TGI: 3.36 µM
M14 melanoma
  GI50: 1.81 µM
  TGI: 3.49 µM
MALME-3M melanoma
  GI50: 1.84 µM
  TGI: 3.34 µM
MCF7 breast
  GI50: 1.71 µM
  TGI: 4.21 µM
MDA-MB-231 breast
  GI50: 2.1 µM
  TGI: 4.48 µM
MDA-MB-435
  GI50: 1.69 µM
  TGI: 3.16 µM
MOLT-4 leukemia
  GI50: 2.89 µM
  TGI: 9.1 µM
NCI-H226 lung
  GI50: 17.3 µM
  TGI: 40.4 µM
NCI-H23 lung
  GI50: 11.2 µM
  TGI: 25.2 µM
NCI-H460 lung
  GI50: 2.95 µM
  TGI: 8.73 µM
NCI-H522 lung
  GI50: 2.14 µM
  TGI: 4.96 µM
NCI/ADR-RES ovarian
  GI50: 3.71 µM
  TGI: 18.7 µM
OVCAR-3 ovarian
  GI50: 2.27 µM
  TGI: 5.53 µM
OVCAR-4 ovarian
  GI50: 2.95 µM
  TGI: 11.3 µM
OVCAR-5 ovarian
  GI50: 4.63 µM
  TGI: 16.8 µM
OVCAR-8 ovarian
  GI50: 3.2 µM
  TGI: 13.7 µM
PC-3 prostate
  GI50: 3.08 µM
  TGI: 15.2 µM
RPMI-8226 leukemia
  GI50: 2.44 µM
  TGI: 5.99 µM
RXF 393 renal
  GI50: 1.41 µM
  TGI: 3.06 µM
SF-268 CNS
  GI50: 8.31 µM
  TGI: 23.9 µM
SF-295 CNS
  GI50: 1.84 µM
  TGI: 3.46 µM
SF-539 CNS
  GI50: 1.71 µM
  TGI: 3.12 µM
SK-MEL-2 melanoma
  GI50: 2.26 µM
  TGI: 5.13 µM
SK-MEL-28 melanoma
  GI50: 1.75 µM
  TGI: 3.19 µM
SK-MEL-5 melanoma
  GI50: 1.65 µM
  TGI: 3.12 µM
SK-OV-3 ovarian
  GI50: 14 µM
  TGI: 27.4 µM
SN12C renal
  GI50: 8.09 µM
  TGI: 21.7 µM
SNB-19 CNS
  GI50: 5.05 µM
  TGI: 17.7 µM
SNB-75 CNS
  GI50: 1.69 µM
  TGI: 5.38 µM
SR leukemia
  GI50: 1.53 µM
  TGI: 5.3 µM
SW-620 colon
  GI50: 2.28 µM
  TGI: 6.24 µM
T-47D breast
  GI50: 1.87 µM
  TGI: 4.29 µM
TK-10 renal
  GI50: 1.9 µM
  TGI: 3.71 µM
U251 CNS
  GI50: 1.88 µM
  TGI: 3.92 µM
UACC-257 melanoma
  GI50: 1.96 µM
  TGI: 4.04 µM
UACC-62 melanoma
  GI50: 2.28 µM
  TGI: 5.39 µM
UO-31 renal
  GI50: 1.38 µM
  TGI: 3.21 µM

## Cc1cc2c(C(C)C)c(O)c(O)cc2c(O)c1-c1c(C)cc2c(C(C)C)c(O)c(O)cc2c1O
786-0 renal
  GI50: 16.7 µM
  TGI: 33.9 µM
A498 renal
  GI50: 14.1 µM
  TGI: 32.2 µM
A549 NSCLC
  GI50: 17.2 µM
  TGI: 47.2 µM
ACHN renal
  GI50: 8.66 µM
  TGI: 21.9 µM
BT-549 breast
  GI50: 14.4 µM
  TGI: 41.2 µM
CAKI-1 renal
  GI50: 19.2 µM
  TGI: 82.6 µM
CCRF-CEM leukemia
  GI50: 3.91 µM
  TGI: 21.5 µM
COLO 205 colon
  GI50: 3.84 µM
  TGI: 15 µM
DU-145 prostate
  GI50: 22 µM
  TGI: 78 µM
EKVX NSCLC
  GI50: 20.8 µM
  TGI: 68.6 µM
HCC-2998 colon
  GI50: 16.4 µM
  TGI: 30 µM
HCT-116 colon
  GI50: 3.98 µM
  TGI: 14 µM
HCT-15 colon
  GI50: 5.31 µM
  TGI: 20.9 µM
HL-60(TB) leukemia
  GI50: 9.07 µM
  TGI: 34.1 µM
HOP-62 NSCLC
  GI50: 13 µM
  TGI: 30.2 µM
HOP-92 NSCLC
  GI50: 3.13 µM
  TGI: 17.4 µM
HS 578T breast
  GI50: 19.3 µM
  TGI: 47.6 µM
HT29 colon
  GI50: 20.1 µM
  TGI: 39.6 µM
IGROV1 ovarian
  GI50: 10.1 µM
  TGI: 23.6 µM
K-562 leukemia
  GI50: 5.72 µM
  TGI: 27.7 µM
KM12 colon
  GI50: 11.6 µM
  TGI: 27.2 µM
LOX IMVI melanoma
  GI50: 4.42 µM
  TGI: 16.2 µM
M14 melanoma
  GI50: 12.3 µM
  TGI: 27.6 µM
MALME-3M melanoma
  GI50: 10.9 µM
  TGI: 24.6 µM
MCF7 breast
  GI50: 11.4 µM
  TGI: 29.5 µM
MDA-MB-231 breast
  GI50: 13.5 µM
  TGI: 34.8 µM
MDA-MB-435
  GI50: 14.5 µM
  TGI: 31.3 µM
MOLT-4 leukemia
  GI50: 10.6 µM
  TGI: 44.9 µM
NCI-H226 lung
  GI50: 16.5 µM
  TGI: 34.9 µM
NCI-H23 lung
  GI50: 18.4 µM
  TGI: 37.5 µM
NCI-H460 lung
  GI50: 11.8 µM
  TGI: 40 µM
NCI-H522 lung
  GI50: 10.1 µM
  TGI: 24.5 µM
NCI/ADR-RES ovarian
  GI50: 20.7 µM
  TGI: 48.9 µM
OVCAR-3 ovarian
  GI50: 14.4 µM
  TGI: 29.8 µM
OVCAR-4 ovarian
  GI50: 14 µM
  TGI: 33.8 µM
OVCAR-5 ovarian
  GI50: 17.9 µM
  TGI: 36.5 µM
OVCAR-8 ovarian
  GI50: 15.2 µM
  TGI: 41.1 µM
PC-3 prostate
  GI50: 12.4 µM
  TGI: 27.7 µM
RPMI-8226 leukemia
  GI50: 13.1 µM
  TGI: 39.3 µM
RXF 393 renal
  GI50: 15.1 µM
  TGI: 33.5 µM
SF-268 CNS
  GI50: 12 µM
  TGI: 34.6 µM
SF-295 CNS
  GI50: 22.5 µM
  TGI: 58 µM
SF-539 CNS
  GI50: 19.9 µM
  TGI: 43.5 µM
SK-MEL-2 melanoma
  GI50: 17.7 µM
  TGI: 33.9 µM
SK-MEL-28 melanoma
  GI50: 16.8 µM
  TGI: 32.8 µM
SK-MEL-5 melanoma
  GI50: 12.6 µM
  TGI: 26 µM
SK-OV-3 ovarian
  GI50: 23.9 µM
  TGI: 73.5 µM
SN12C renal
  GI50: 8.03 µM
  TGI: 20.6 µM
SNB-19 CNS
  GI50: 14.9 µM
  TGI: 35.6 µM
SNB-75 CNS
  GI50: 24.5 µM
  TGI: 60 µM
SR leukemia
  GI50: 8.24 µM
  TGI: 28.4 µM
SW-620 colon
  GI50: 16.7 µM
  TGI: 40.5 µM
T-47D breast
  GI50: 19.1 µM
  TGI: 45.7 µM
TK-10 renal
  GI50: 13.6 µM
  TGI: 83.4 µM
U251 CNS
  GI50: 4.16 µM
  TGI: 14.5 µM
UACC-257 melanoma
  GI50: 26.6 µM
  TGI: 65 µM
UACC-62 melanoma
  GI50: 2.32 µM
  TGI: 14.3 µM
UO-31 renal
  GI50: 14.9 µM
  TGI: 29.1 µM
